Measured values as given in patent publication US20240158446A1, “CYCLIC COMPOUND HAVING SELECTIVE INHIBITORY ACTION ON KRAS OVER HRAS AND NRAS” (CHUGAI SEIYAKU KABUSHIKI KAISHA, priority 2021, published 2024).
Read-outs that look alike come from different tables or passages of the source. *1 amine or outer side, *2 acyl side, *3 side chain or, on linkers, in order; H or OH if unused. Where a SMILES comes first, the peptide text is derived from it. Bridges are numbered along the chain shown (N, C = ends). [ ]: non-standard residue; d: D form. The star is where a group is joined. hPhe(3-Cl-4-CF3) = N[C@@H](CCc1ccc(C(F)(F)F)c(Cl)c1)C(=O)O; NPrPhe(4-CF3) = CCCN[C@@H](Cc1ccc(C(F)(F)F)cc1)C(=O)O; X16 = CCCN([C@@H](Cc1ccc(OC)cc1)C(=O)[*:2])[*:1]; NMeGly(cPent) = CN[C@H](C(=O)O)C1CCCC1; NMeD = CN[C@@H](CC(=O)O)C(=O)O; NMeL = CN[C@@H](CC(C)C)C(=O)O; hPip = O=C(O)[C@@H]1CCCCCN1; Morpholide = C1CN(*)CCO1; Ac5c = NC1(C(=O)O)CCCC1; Aze = O=C(O)[C@@H]1CCN1; Ac4c = NC1(C(=O)O)CCC1; NEtG = CCNCC(=O)O; Sar = CNCC(=O)O

Assays:
[1] = target: GDP-bound HRAS wild-type protein (Homo sapiens, UniProt P01112); experiment: Binding to HRAS by surface plasmon resonance (SPR), Single Cycle Kinetics; details: for HRAS/KRAS (ratio of KD value for HRAS to KD value for KRAS) / HRAS/KRAS (ratio of KD value with respect to HRAS to KD value with respect to KRAS): SPR, GDP-bound HRAS wild-type protein vs GDP-bound KRAS wild-type protein; for HRAS/KRAS (ratio of KD value with respect to GDP-bound HRAS wild-type protein to KD value with respect to KRAS): SPR KD ratio HRAS/KRAS, class symbols
[2] = target: GDP-bound KRAS wild-type protein (Homo sapiens, UniProt P01116); experiment: Binding to KRAS by surface plasmon resonance (SPR), Single Cycle Kinetics; details: GDP-bound KRAS wild-type protein, read-out: KRAS KD
[3] = target: GDP-bound NRAS wild-type protein (Homo sapiens, UniProt P01111); experiment: Binding to NRAS by surface plasmon resonance (SPR), Single Cycle Kinetics; details: for NRAS/KRAS (ratio of KD value for NRAS to KD value for KRAS) / NRAS/KRAS (ratio of KD value with respect to NRAS to KD value with respect to KRAS): SPR, GDP-bound NRAS wild-type protein vs GDP-bound KRAS wild-type protein; for NRAS/KRAS (ratio of KD value with respect to GDP-bound NRAS wild-type protein to KD value with respect to KRAS): SPR KD ratio NRAS/KRAS, class symbols
[4] = SPR Single Cycle Kinetics, 1:1 binding model

Sequence of GDP-bound HRAS wild-type protein (P01112 whole entry): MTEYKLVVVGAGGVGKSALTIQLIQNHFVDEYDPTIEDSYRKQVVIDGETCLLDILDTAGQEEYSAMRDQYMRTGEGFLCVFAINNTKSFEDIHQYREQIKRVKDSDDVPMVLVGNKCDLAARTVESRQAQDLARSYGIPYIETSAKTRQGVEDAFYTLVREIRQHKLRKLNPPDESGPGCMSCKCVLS
Sequence of GDP-bound KRAS wild-type protein (P01116 whole entry): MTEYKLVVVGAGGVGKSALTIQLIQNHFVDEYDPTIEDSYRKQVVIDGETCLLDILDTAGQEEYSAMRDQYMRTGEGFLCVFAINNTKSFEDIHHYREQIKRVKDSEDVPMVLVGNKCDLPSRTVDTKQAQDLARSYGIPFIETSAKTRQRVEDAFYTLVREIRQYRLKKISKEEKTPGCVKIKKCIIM
Sequence of GDP-bound NRAS wild-type protein (P01111 whole entry): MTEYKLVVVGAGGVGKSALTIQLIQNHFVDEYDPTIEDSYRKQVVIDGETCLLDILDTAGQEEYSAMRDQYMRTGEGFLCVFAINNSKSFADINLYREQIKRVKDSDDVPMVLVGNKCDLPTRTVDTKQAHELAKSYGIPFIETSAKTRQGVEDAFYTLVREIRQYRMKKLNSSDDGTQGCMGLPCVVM

Row | Kd [2, 4] [pM] | Kd ([2]; SPR, Single Cycle Kinetics) [pM] | Compound | HRAS/KRAS (ratio of KD value for HRAS to KD value for KRAS) [1] | NRAS/KRAS (ratio of KD value for NRAS to KD value for KRAS) [3] | HRAS/KRAS (ratio of KD value with respect to GDP-bound HRAS wild-type protein to KD value with respect to KRAS) [1] | NRAS/KRAS (ratio of KD value with respect to GDP-bound NRAS wild-type protein to KD value with respect to KRAS) [3] | HRAS/KRAS (ratio of KD value with respect to HRAS to KD value with respect to KRAS) [1] | NRAS/KRAS (ratio of KD value with respect to NRAS to KD value with respect to KRAS) [3]
1 | 2200 |  | CCCN1C(=O)CN(C)C(=O)CN(CC)C(=O)[C@H]([C@@H](C)CC)NC(=O)[C@@H]2CCCCCN2C(=O)C[C@@H](C(=O)N2CCOCC2)N(C)C(=O)[C@H](C2CCCC2)N(C)C(=O)C2(CCCC2)NC(=O)[C@@H]2CCCN2C(=O)[C@H](CCc2ccc(C(F)(F)F)c(Cl)c2)NC(=O)CN(C)C(=O)[C@@H]1Cc1ccc(C(F)(F)F)cc1 [PP0289] ([hPip]I[NEtG][Sar][NPrPhe(4-CF3)][Sar][hPhe(3-Cl-4-CF3)]P[Ac5c][NMeGly(cPent)][NMeD]-Morpholide; lactam N-11) | B (a compound having 3 or more and less than 10 is denoted as B) | B (a compound having 3 or more and less than 10 is denoted as B) |  |  |  | 
2 | 1200 |  | CCC[C@H]1C(=O)N[C@@H]([C@@H](C)CC)C(=O)N(C)CC(=O)N(C)[C@H]2C/C=C\CCN(C2=O)[C@@H](Cc2ccc(C)cc2)C(=O)N(C)CC(=O)N[C@@H](CCc2ccc(Cl)c(Cl)c2)C(=O)N2CCCCC[C@H]2C(=O)NC2(CC(C)(C)C2)C(=O)N(C)[C@@H](C(CC)CC)C(=O)N(C)[C@H](C(=O)N(C)C)CC(=O)N1C [PP2962] |  |  | A (a compound having 10 or more and less than 20 is denoted as A) | AA (a compound having 20 or more is denoted as AA) |  | 
3 |  | 57 | CC[C@H](C)[C@@H]1NC(=O)[C@H](CC(C)C)N(C)C(=O)C[C@@H](C(=O)N2CCOCC2)N(C)C(=O)[C@H](C2CCCC2)N(C)C(=O)C2(CCC2)NC(=O)[C@@H]2[C@H](O)CCN2C(=O)[C@H](CCc2cc(F)c(C(F)(F)F)c(F)c2)NC(=O)CN(C)C(=O)[C@H](Cc2ccc(C(F)(F)F)cc2)N2CCCC[C@@H](C2=O)N(C)C(=O)CN(C)C1=O [PP0870] | B (a compound having 3 or more and less than 10 is denoted as B) | B (a compound having 3 or more and less than 10 is denoted as B) |  |  |  | 
4 | 19 |  | CC[C@H](C)[C@@H]1NC(=O)[C@H](CC(C)C)N(C)C(=O)C[C@@H](C(=O)N(C)C)N(C)C(=O)[C@H](C2CCCC2)N(C)C(=O)C2(CCC2)NC(=O)[C@@H]2CC(F)(F)CN2C(=O)[C@H](CCc2cc(F)c(C(F)(F)F)c(F)c2)NC(=O)CN(C)C(=O)[C@H](Cc2ccc(C(F)(F)F)cc2)N2CCCC[C@@H](C2=O)N(C)C(=O)CN(C)C1=O [PP0577] |  |  |  |  | C (A compound having a KD ratio of 0.1 or more and less than 3 is denoted as C) | C (A compound having a KD ratio of 0.1 or more and less than 3 is denoted as C)
5 | 11 |  | CCO[C@@H]1C[C@H]2C(=O)NC3(CCC3)C(=O)N(C)[C@@H](C3CCCC3)C(=O)N(C)[C@H](C(=O)N(C)C)CC(=O)N(C)[C@@H](COC)C(=O)N[C@@H]([C@@H](C)CC)C(=O)N(C)CC(=O)N(C)[C@H]3CCCCN(C3=O)[C@@H](Cc3ccc(C(F)(F)F)cc3)C(=O)N(C)CC(=O)N[C@@H](CCc3cc(F)c(C(F)(F)F)c(F)c3)C(=O)N2C1 [PP0704] |  |  |  |  | C (A compound having a KD ratio of 0.1 or more and less than 3 is denoted as C) | C (A compound having a KD ratio of 0.1 or more and less than 3 is denoted as C)
6 | 1800 |  | CCCN1C(=O)CN(C)C(=O)[C@@H]2CCN2C(=O)[C@H]([C@@H](C)CC)NC(=O)[C@H](CC(C)C)N(C)C(=O)C[C@@H](C(=O)N(C)C)NC(=O)[C@H](C2CCCC2)N(C)C(=O)C2(CCC2)NC(=O)[C@@H]2CCCN2C(=O)[C@H](CCc2ccc(C(F)(F)F)c(Cl)c2)NC(=O)CN(C)C(=O)[C@@H]1Cc1ccc(C(F)(F)F)cc1 [PP0374] ([NMeL]I[Aze][Sar][NPrPhe(4-CF3)][Sar][hPhe(3-Cl-4-CF3)]P[Ac4c][NMeGly(cPent)]D-NMe2; lactam N-11) | B (a compound having 3 or more and less than 10 is denoted as B) | B (a compound having 3 or more and less than 10 is denoted as B) |  |  |  | 
7 |  | 530 | CCCO[C@@H]1C[C@H]2C(=O)NC3(CCC3)C(=O)N(C)[C@@H](C3CCCC3)C(=O)N(C)[C@H](C(=O)N3CCOCC3)CC(=O)N(C)[C@@H](COC)C(=O)N[C@@H]([C@@H](C)CC)C(=O)N(C)CC(=O)N(C)[C@H]3CCCCCN(C3=O)[C@@H](Cc3ccc(C(F)(F)F)cc3)C(=O)N(C)CC(=O)N[C@@H](CCc3cc(F)c(C(F)(F)F)c(F)c3)C(=O)N2C1 [PP0838] | B (a compound having 3 or more and less than 10 is denoted as B) | B (a compound having 3 or more and less than 10 is denoted as B) |  |  |  | 
8 | 560 |  | CC[C@H](C)[C@@H]1NC(=O)[C@H](C)N(C)C(=O)C[C@@H](C(=O)N(C)C)N(C)C(=O)[C@H](C2CCCC2)N(C)C(=O)C2(CCC2)NC(=O)[C@@H]2CC(F)(F)CN2C(=O)[C@H](CCc2cc(F)c(C(F)(F)F)c(F)c2)NC(=O)CN(C)C(=O)[C@H](Cc2ccc(C(F)(F)F)cc2)N2CCCCC[C@@H](C2=O)N(C)C(=O)CN(C)C1=O [PP0473] |  |  |  |  | C (A compound having a KD ratio of 0.1 or more and less than 3 is denoted as C) | C (A compound having a KD ratio of 0.1 or more and less than 3 is denoted as C)
9 | 36 |  | CCO[C@@H]1C[C@H]2C(=O)NC3(CCC3)C(=O)N(C)[C@@H](C3CCCC3)C(=O)N(C)[C@H](C(=O)N3CCOCC3)CC(=O)N(C)[C@@H](CCOC)C(=O)N[C@@H]([C@@H](C)CC)C(=O)N(C)CC(=O)N(C)[C@H]3CCCCN(C3=O)[C@@H](Cc3ccc(C(F)(F)F)cc3)C(=O)N(C)CC(=O)N[C@@H](CCc3cc(F)c(C(F)(F)F)c(F)c3)C(=O)N2C1 [PP0720] |  |  |  |  | B (a compound having 3 or more and less than 10 is denoted as B) | C (A compound having a KD ratio of 0.1 or more and less than 3 is denoted as C)
10 | 55 |  | CCC[C@H]1C(=O)N[C@@H]([C@@H](C)CC)C(=O)N(C)CC(=O)N(C)[C@H]2C/C=C\CCN(C2=O)[C@@H](Cc2ccc(C(F)(F)F)cc2)C(=O)N(C)CC(=O)N[C@@H](CCc2ccc3sc(F)c(C)c3c2)C(=O)N2C[C@H](OCC)C[C@H]2C(=O)NC2(CC(C)(C)C2)C(=O)N(C)[C@@H](C2CCCC2)C(=O)N(C)[C@H](C(=O)N(C)C)CC(=O)N1C [PP2948] |  |  | A (a compound having 10 or more and less than 20 is denoted as A) | A (a compound having 10 or more and less than 20 is denoted as A) |  | 
11 |  | 820 | CCC[C@H]1C(=O)N[C@@H]([C@@H](C)CC)C(=O)N(C)CC(=O)N(C)[C@H]2C/C=C\CCN(C2=O)[C@@H](Cc2ccc(C)cc2)C(=O)N(C)CC(=O)N[C@@H](CCc2ccc(C(F)(F)F)c(Cl)c2)C(=O)N2C[C@H](OCC)C[C@H]2C(=O)NC2(CC(C)(C)C2)C(=O)N(C)[C@@H](CC(F)(F)F)C(=O)N(C)[C@H](C(=O)N(C)C)CC(=O)N1C [PP2226] | A (a compound having 10 or more and less than 20 is denoted as A) | A (a compound having 10 or more and less than 20 is denoted as A) |  |  |  | 
12 | 750 |  | CCCN1C(=O)CN(C)C(=O)CN(C)C(=O)[C@H]([C@@H](C)CC)NC(=O)[C@H](CC(C)C)N(C)C(=O)C[C@@H](C(=O)N2CCOCC2)N(C)C(=O)[C@H](C2CCCC2)N(C)C(=O)C2(CCCC2)NC(=O)[C@@H]2CCCN2C(=O)[C@H](CCc2ccc(C(F)(F)F)c(Cl)c2)NC(=O)CN(C)C(=O)[C@@H]1Cc1ccc(OC)cc1 [PP0135] ([NMeL]I[Sar][Sar][X16][Sar][hPhe(3-Cl-4-CF3)]P[Ac5c][NMeGly(cPent)][NMeD]-Morpholide; lactam N-11) | C (A compound having a KD ratio of 0.1 or more and less than 3 is denoted as C) | B (a compound having 3 or more and less than 10 is denoted as B) |  |  |  | 
13 | 260 |  | C#CC[C@H]1C(=O)N[C@@H]([C@@H](C)CC)C(=O)N(C)CC(=O)N(C)[C@H]2C/C=C\CCN(C2=O)[C@@H](Cc2ccc(C(F)(F)F)cc2)C(=O)N(C)CC(=O)N[C@@H](CCc2ccc(Cl)c(Cl)c2)C(=O)N2C[C@H](OCC)C[C@H]2C(=O)NC2(CC(C)(C)C2)C(=O)N(C)[C@@H](C2CCCC2)C(=O)N(C)[C@H](C(=O)N(C)CC)CC(=O)N1C [PP2843] |  |  | A (a compound having 10 or more and less than 20 is denoted as A) | A (a compound having 10 or more and less than 20 is denoted as A) |  | 
14 |  | 7700 | CC[C@H](C)[C@@H]1NC(=O)[C@H](CC(C)C)N(C)C(=O)C[C@@H](C(=O)N(C)C)N(CCC2CCCC2)C(=O)[C@H](C2CCCC2)N(C)C(=O)C2(CCC2)NC(=O)[C@@H]2CC(F)(F)CN2C(=O)[C@H](CCc2ccc(C(F)(F)F)c(Cl)c2)NC(=O)CN(C)C(=O)[C@H](Cc2ccc(F)cc2)N2CCCCC[C@@H](C2=O)N(C)C(=O)CN(C)C1=O [PP0977] | A (a compound having 10 or more and less than 20 is denoted as A) | B (a compound having 3 or more and less than 10 is denoted as B) |  |  |  | 
